Like-named read-outs stand apart in the source and are kept apart here.
Assays:
[1] = Plasma pharmacokinetics after oral gavage in nude mice bearing CWR-22Rv1 xenografts; assay type: in vivo, mouse; conditions: for half-life: po, 5 mg/kg
Procedure: To determine the PK of tasquinimod, nude mice with growing (i.e., 200-400 mm^3) CWR-22Rv1 human prostate cancer xenografts were given ^14C-radiolabeled drug at a dose of 5 mg/kg via oral gavage and the plasma and tissue (i.e., liver, kidney, and tumor) drug concentration determined. Maximum tasquinimod plasma concentration is reached within 1 hour after oral gavage of mice, Figure 1C. After this absorption phase, the plasma concentration declines bi-exponentially as the sum of two first-order processes involving tissue distribution, with the plasma concentration remaining above 1 μM for at least 24 hours, Figure 1D. These PK results support a two-compartment model composed of a central and peripheral compartment. In the absorption phase, the apparent volume of distribution is low (i.e., 0.31 L/kg) but is still more than 3 times the total volume of the blood (i.e., 0.1 L/kg) and is equal to the extracellular body fluid (i.e. 0.2 L/kg) plus the total volume of blood in a mouse (i.e., […]).
Male nude mice bearing 200-300mm^3 CWR-22Rv1 cancers were given ^14C-labeled tasquinimod at a dose of 5 mg/kg via oral gavage. At times ranging from 30 min to 24 hour, groups of 4-6 mice were anaesthetized with ketamine and 1 ml of heparinized blood collected by cardiac puncture, followed by subsequent cardiac perfusion of saline to remove blood associated drug. An aliquot of liver, kidney, and cancer was removed, weighed and then homogenized. The radioactivity in 10 μL aliquots of tissue homogenates and blood plasma was determined using a liquid scintillation counter and used to calculate the total amount of tasquinimod plus its metabolites per gram of tissue or per ml of blood. The remaining sample volume was deproteinated with acetonitrile and the radioactivity of an aliquot of the supernatant determined and the remaining supernatant lyophilized, resuspended initially with 0.1mL dimethyl sulfoxide and diluted by the addition of 0.9mL deionized water prior to injection into the HPLC. The HPLC system consisted of Waters pumps using a Waters gradient controller to deliver mobile phase at a flow rate of 1mL per minute using a Supelcosil ABZ+ C18 column that is 150mm long by 4.6mm diameter and has 5μm particle size. The metabolites were separated using a linear gradient in which the starting mobile phase was 35% acetonitrile: 65% water: 0.1% Trifluoroacetic acid (TFA) increasing to 50% acetonitrile: 50% water: 0.1%TFA over 25 minutes, and then increased rapidly to 98% acetonitrile: 2% water: 0.1%TFA and held until 33 minutes before it is returned to the initial conditions for the next run. Fractions were collected and the radioactivity determined by scintillation counting. As controls, the individual elution time of non-radiolabeled standard solutions of the various tasquinimod metabolites was determined using UV absorption at 215nm. The results were expressed as concentration based upon tissue volume, assuming 1gram wet weight equals 1ml, or normalized to tissue vascular volume.

human albumin = target: T1, human albumin (Homo sapiens, UniProt P02768); test: Equilibrium dialysis binding to human albumin; conditions: pH 7.4, equilibrium dialysis, read-out: equilibrium dissociation constant (Kd)
T1 construct: purchased Sigma
Procedure: To determine whether albumin is the tasquinimod binding protein in plasma, albumin was removed from human plasma using an albumin depletion kit (Thermo Scientific cat # 85160). The albumin depleted plasma was then tested for its protein binding as described above. The dissociation constant (kd) for tasquinimod binding was determined based upon equilibrium dialysis of a mixture of 4mg/ml of the species (i.e., human, bovine, and mouse) specific albumin obtained from Sigma with 2μM of ^14C-labeled tasquinimod in PBS pH 7.4 buffer using a 96-well equilibrium dialyzer™ (Harvard Apparatus, Holliston,MA).

[2] = test system: CWR-22RH human prostate cancer; test: Tumor take of CWR-22RH xenografts in castrated nude mice; assay type: in vivo, mouse; conditions: tasquinimod alone 10mg/kg/day via drinking water from inoculation
Procedure: To confirm this conclusion, castrated male nude mice were xenografted with the castrate resistant CWR-22RH human prostate cancer tissue and the animals immediately randomized into groups (n=10) which were: 1) left untreated as controls; 2) given daily oral treatment with tasquinimod alone via the drinking water (10mg/kg/day); 3) given oral ketoconazole alone via oral gavage at a daily dose which inhibits cytochrome P450 3A4 (i.e., 25 mg/kg/day); or 4) given a combination of the two drugs. […] These combined in vitro/in vivo results document tasquinimod, not one of its metabolites, is the active drug.
The source, history, and characteristics of the human prostate cancer cell lines (i.e., LNCaP, LAPC4, and CWR-22Rv1 and the human umbilical vascular endothelial cells (HUVEC) used, as well as cell culture conditions for their in vitro maintenance and the in vivo protocol for their xenografting into immune-deficient nude male mice are as described previously. The source, history, and characteristics of the TRAMP-C2 mouse prostate cancer line, as well as cell culture conditions for their in vitro maintenance and the in vivo protocol for their growth in intact adult male syngeneic C57Bl/6J are as described previously. All lines were mycoplasma negative using the MycoSensor PCR Assay kit (Agilent Technologies) and genetically authenticated within the last 6 months using short tandem repeat profiling conducted by the Johns Hopkins Genetic Resource Core Facility. The source, history, and characteristics of the CWR-RH human prostate cancer xenograft are as described previously. In vitro growth curves were determined as described. Animal studies were conducted according to animal protocol MO09M434 approved by Johns Hopkins Animal Care and Use Committee. Daily drug dosing via oral gavage, the drinking water, or subcutaneous injection, as well as tumor volume measurements and determination of the blood vessel density within cancers, were as described previously. These experiments were repeated at 3 independent times for each xenograft.

[3] = Nadir plasma concentration after 5 days oral dosing in C57Bl/6J mice; assay type: in vivo, mouse; conditions: 5 mg/kg/day oral gavage, end of 5 days
Procedure: To determine whether this chronic 5 mg/kg/day oral dosing regimen produces similar blood concentrations in mice as obtained in human trials, intact adult male C57Bl/6J mice (n=4) were given ^14C- radiolabeled tasquinimod via oral gavage and then the plasma concentration of drug at the end of 5 days determined based upon radioactivity levels.

[4] = test system: metastatic, castrate resistant prostate cancer; design: method as in PMID 21931019, PMID 24255071; conditions: vs placebo; cited from earlier work

T1 sequence (P02768 25-609): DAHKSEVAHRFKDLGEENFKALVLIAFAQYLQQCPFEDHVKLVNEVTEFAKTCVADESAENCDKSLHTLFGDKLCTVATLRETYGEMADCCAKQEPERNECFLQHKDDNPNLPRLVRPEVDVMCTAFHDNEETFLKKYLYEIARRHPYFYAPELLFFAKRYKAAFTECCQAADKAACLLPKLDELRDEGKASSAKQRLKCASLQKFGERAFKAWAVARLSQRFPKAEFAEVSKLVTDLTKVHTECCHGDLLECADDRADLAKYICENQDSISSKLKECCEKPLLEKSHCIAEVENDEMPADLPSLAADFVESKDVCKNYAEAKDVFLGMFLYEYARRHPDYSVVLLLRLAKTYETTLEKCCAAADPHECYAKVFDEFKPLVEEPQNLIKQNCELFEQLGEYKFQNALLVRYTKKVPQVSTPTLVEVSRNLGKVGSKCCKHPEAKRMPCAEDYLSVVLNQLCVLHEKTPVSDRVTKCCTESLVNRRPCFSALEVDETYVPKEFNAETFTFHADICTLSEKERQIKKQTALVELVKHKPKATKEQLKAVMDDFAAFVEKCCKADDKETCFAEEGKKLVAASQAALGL

Cmax for protein free-tasquinimod ([1]; 5 mg/kg oral): ~ 0.24 μM | time plasma concentration remains above 1 μM ([1]; 5 mg/kg oral gavage, nude mice): at least 24 hours | increase in plasma elimination half-life on ketoconazole co-treatment ([1]; 5 mg/kg oral tasquinimod with ketoconazole 25mg/kg/day oral): more than 8 fold | apparent volume of distribution ([1]; absorption phase, 5 mg/kg oral): 0.31 L/kg | fraction of blood drug located in the plasma and not in blood cells ([1]; fractionated whole blood, 4hours post oral dosing): > 98% | Tmax ([1]; male, mouse, plasma, 5 mg/kg oral gavage, nude mice, read-out: time to maximum plasma concentration): ≤ 1 h | half-life ([1]; male, nude, mouse, plasma, 5 mg/kg oral, read-out: half-life of α-distribution phase (converted)): 3.2 h | half-life ([1]; male, nude, mouse, plasma, 5 mg/kg oral, read-out: β-elimination phase half-life): > 10 h | Cmax ([1]; male, nude, mouse, plasma, 5 mg/kg oral, read-out: total plasma Cmax): ~12 µM | Kd (human albumin): 24 ± 4 µM | nadir plasma concentration [3]: 1.08 ± 0.21 µM
SMILES: COc1cccc2c1c(O)c(C(=O)N(C)c1ccc(C(F)(F)F)cc1)c(=O)n2C [Tasquinimod]
tumor take and subsequent malignant growth [2]: prevents tumor take | median progression-free survival [4]: doubles

— paper PMC4226669, “Anti-cancer potency of tasquinimod is enhanced via albumin-binding facilitating increased uptake in the tumor microenvironment” (Oncotarget, 2014)
